In PubChem BioAssay (NCI):
Where “and” joins values, the source holds several entries; their conditions need not be identical. Identical values can stand only once.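 96-well plates; 48 h exposure; 5 concentrations. Endpoints by linear interpolation between flanking doses. Not reached: highest tested concentration assigned. GI50: concentration for 50% inhibition of growth. TGI marks complete inhibition of growth.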

Legend:
Assay in all cases: inhibition of tumour cell growth, NCI panel, 48 h
[1] = test system: HOP-62 NSCLC
[2] = test system: IGROV1 ovarian
[3] = test system: NCI-H226 lung
[4] = test system: M14 melanoma
[5] = test system: OVCAR-3 ovarian
[6] = test system: SR leukemia
[7] = test system: OVCAR-5 ovarian
[8] = test system: MALME-3M melanoma
[9] = test system: NCI-H23 lung
[10] = test system: SK-MEL-28 melanoma

| Compound | GI50 [1] | GI50 [2] | TGI [2] | GI50 [3] | TGI [3] | GI50 [4] | TGI [4] | GI50 [5] | TGI [5] | GI50 [6] | TGI [6] | GI50 [7] | TGI [7] | TGI [8] | GI50 [9] | TGI [9] | TGI [10] | TGI [1] | GI50 [8] | GI50 [10] |
| --- | --- | --- | --- | --- | --- | --- | --- | --- | --- | --- | --- | --- | --- | --- | --- | --- | --- | --- | --- | --- |
| COc1ccc(C2=C(c3ccc(OC)c(OC)c3)C(=O)OC2)cc1 | < 10 nM | 76.8 nM | > 62800 nM | 16.9 nM | 2920 nM | < 10 nM | > 36400 nM | 177 nM | 389 nM | < 10 nM | 19.2 nM | 545 nM | > 100000 nM | > 81000 nM | 23 nM | > 100000 nM | > 100000 nM | – | – | – |
| CC1=C2C[C@H]3[C@@H](CC=C4C[C@@H](O)CC[C@@]43C)[C@@H]2CC[C@]12O[C@@H]1C[C@H](C)CN[C@H]1[C@H]2C | 17800 nM and 24500 nM | 40500 nM and 17500 nM | 50000 nM and 38900 nM | > 50000 nM and 23100 nM | > 50000 nM and 55300 nM | > 50000 nM and 19600 nM | > 50000 nM and 44100 nM | 12200 nM and 21000 nM | 42800 nM and 43200 nM | 3420 nM | 21900 nM | 11900 nM and 29400 nM | 50000 nM and 89600 nM | 50000 nM and 36000 nM | 29000 nM and 29700 nM | 50000 nM and > 100000 nM | > 100000 nM | 50000 nM and 68600 nM | 19300 nM and 17600 nM | > 50000 nM and 48500 nM |
| c1ccc2c(c1)-c1ccccc1C2N1CC2CCC(CC2)C1 | – | – | 69800 nM | – | 41500 nM | – | 75400 nM | – | 40500 nM | – | 50600 nM | – | 37200 nM | 27600 nM | – | 47500 nM | 96100 nM | 62000 nM | – | – |
| CN(C)C1CCN(C(=O)c2ccc(NC(=O)Nc3ccc(-c4nc(N5CCOCC5)nc(N5CCOCC5)n4)cc3)cc2)CC1 | 22 nM and 102 nM and 32.4 nM | < 10 nM and 7.88 nM and 10.3 nM | 55.3 nM and 57.4 nM and 141 nM | – | 380 nM and 1950 nM and 257 nM | 230 nM and 144 nM and 29.8 nM | 5240 nM and 2500 nM and 1170 nM | 14.8 nM and 13.9 nM and 28.2 nM | 603 nM and 366 nM and 935 nM | 66.6 nM and 12.3 nM | – | 16.7 nM and 31.7 nM and 16.6 nM | 325 nM and 2500 nM and 331 nM | 53 nM and 240 nM and 54 nM | 36.8 nM and 29.7 nM and 73.2 nM | 15700 nM and 2500 nM and 2300 nM | 245 nM and 248 nM and 144 nM | 382 nM and 1900 nM and 1100 nM | 13.8 nM and 38.2 nM and 8.99 nM | 23.1 nM and 39.2 nM and 15.9 nM |
| O=C(Nc1ccc(F)cc1F)c1cc(Br)ccc1O | 2690 nM | 2180 nM | > 100000 nM | 2620 nM | 23800 nM | 1910 nM | 6990 nM | 2890 nM | > 100000 nM | 3050 nM | > 100000 nM | 3830 nM | > 100000 nM | 5750 nM | 2430 nM | 9210 nM | 6240 nM | 12700 nM | 1850 nM | 1430 nM |
| COc1ccc(-c2nc3ncccn3c2/C=C/C(=O)c2cc(OC)c(OC)c(OC)c2)cc1 | 2830 nM | 2200 nM | 6290 nM | 2280 nM | 6920 nM | 1530 nM | 3080 nM | 1750 nM | 4790 nM | 1530 nM | > 100000 nM | 1530 nM | 3590 nM | 17100 nM | 1350 nM | 3370 nM | 3270 nM | 10300 nM | 1810 nM | 1650 nM |
| COC(=O)C12C3C4C5C3(C#N)C1C5(C(=O)OC)C42C(=O)N(C(C)C)C(C)C (centres undefined) | – | – | > 100000 nM | – | > 100000 nM | – | > 100000 nM | – | > 100000 nM | – | 33300 nM | – | > 100000 nM | > 100000 nM | – | > 100000 nM | > 100000 nM | > 100000 nM | – | – |
| COc1cc2c(cc1OCCCCCCN1CCN(c3ncnc4ccccc34)CC1)N=CC1CCCN1C2=O (centres undefined) | 290 nM | 60.2 nM | 209 nM | 125 nM | 330 nM | 171 nM | 1220 nM | 33.6 nM | 88 nM | < 17.4 nM | < 32.1 nM | 290 nM | 13400 nM | 376 nM | 204 nM | 677 nM | 510 nM | 3820 nM | 158 nM | 193 nM |
| CCOc1ccc(Nc2nc(-c3ccc4c(c3)NC(=O)CO4)cs2)cc1 | 15400 nM | 15500 nM | > 100000 nM | 10000 nM | > 100000 nM | 4330 nM | 17400 nM | 20200 nM | > 100000 nM | 4680 nM | > 100000 nM | > 100000 nM | > 100000 nM | 20400 nM | 6960 nM | > 100000 nM | 19600 nM | > 100000 nM | 4710 nM | 4290 nM |
| CC1(C)CCC[C@@]2(C)C1CC[C@H]1CC(O)C3(C)CCC12C3 (some centres undefined) | – | – | 50600 nM | – | 34300 nM | – | 31000 nM | – | 30700 nM | – | 46700 nM | – | 32200 nM | 30700 nM | – | 32800 nM | 33700 nM | 34500 nM | – | – |
| Nc1cc(-c2cccc(OC(F)(F)F)c2)nc2ccc(N3CCCC3)cc12 | 46.3 nM and 50.8 nM and 48.9 nM | 69.8 nM and 62.3 nM and 79.3 nM | 25300 nM and > 100000 nM | 238 nM and 237 nM | > 100000 nM | 28.5 nM and 21.5 nM and 16.8 nM | 1600 nM and 1700 nM | 31.8 nM and 28.8 nM and 27.3 nM | – | 27.5 nM and 15.4 nM and 13.5 nM | – | 113 nM and 84.3 nM and 68.7 nM | 99200 nM and > 100000 nM | – | 71.6 nM and 80.3 nM and 60.9 nM | 43100 nM and > 100000 nM | – | 22000 nM and > 100000 nM | 265 nM and 299 nM and 246 nM | 1460 nM and 3070 nM and 3910 nM |
| Cc1cccc(Cl)c1NC(=O)/C=C/c1ccccc1 | – | – | > 100000 nM | – | > 100000 nM | – | > 100000 nM | – | > 100000 nM | – | > 100000 nM | – | > 100000 nM | > 100000 nM | – | > 100000 nM | > 100000 nM | > 100000 nM | – | – |
| C=C[C@H]1CCC/C=C/[C@@H]2C[C@H](O)C[C@H]2[C@H](O)/C=C/C(=O)O1 | 48.8 nM | 65.5 nM | > 100000 nM | < 12.5 nM | 28.9 nM | 35.3 nM | > 100000 nM | 24.2 nM | 57.6 nM | 31.9 nM | – | 50.4 nM | > 100000 nM | 1890 nM | 39.3 nM | 6000 nM | 404 nM | – | 34 nM | 21.3 nM |
| C=C1C(=O)[C@@]23CC1C(O)[C@@H](OC(C)=O)[C@@H]2C1(C)C(OC(C)=O)C[C@@H](OC(C)=O)C(C)(C)[C@@H]1C[C@H]3OC(C)=O (some centres undefined) | 19.2 µg/mL | > 10 µM and 13.1 µg/mL | > 10 µM and 27.7 µg/mL | 3.11 µg/mL | > 10 µM and 7.24 µg/mL | 2.33 µM and 2.68 µg/mL | > 10 µM and 7.15 µg/mL | > 10 µM and 3.93 µg/mL | > 10 µM and 8.34 µg/mL | 1.7 µM and 0.255 µg/mL | 4.6 µM and 1.63 µg/mL | > 10 µM and 7.32 µg/mL | > 10 µM and 16 µg/mL | 3.3 µM and 3.14 µg/mL | 7.86 µM and 2.63 µg/mL | > 10 µM and 7.68 µg/mL | > 10 µM and 3.46 µg/mL | > 10 µM and 34.9 µg/mL | 1.57 µM and 1.72 µg/mL | 6.69 µM and 1.67 µg/mL |
